From publication PMC6886544

How the values were obtained:
[1] = Microsomal stability (phase I), human; format: in vitro ADME; settings: human liver microsomes, up to 50 minutes, 37 °C
Experimental: Microsomal stability (phase I) assay.
Metabolic stability under oxidative conditions was measured in liver microsomes from different
time up to 50 minutes (HLM) or 60 minutes (MLM) at 37 °C. Based on the compound half-life t1/2,
the in vitro intrinsic clearance CLint was calculated. […]

Caco-2 assay = format: in vitro ADME; settings: human
Experimental: For Caco-2 cell assay, a 10 mM DMSO stock of the compound was diluted to a final concentration of 5 μM in HBSS buffer pH 7.4 and incubated for 2 hours at 37 °C and 5% CO2 on a monolayer of Caco-2 cells (ATCC) that had been grown on a transwell membrane (Millipore, Schwalbach, Germany) for 21 days. The compound concentration was measured in the receiver as well as the donor well. Apparent permeability (Papp) from either the apical to basolateral direction or vice versa […]
is the donor drug concentration at t = 0, and dQ/dt is the amount of drug transported within the given time period of 2 hours. […]

SRC-N1 = SRC-N1 (Homo sapiens, UniProt P12931); assay: SelectScreen kinase profiling, SRC-N1; format: biochemical; settings: mean ± SD of one measurement in duplicates
SRC-N1, sequence (P12931 1-542 isoform P12931-2): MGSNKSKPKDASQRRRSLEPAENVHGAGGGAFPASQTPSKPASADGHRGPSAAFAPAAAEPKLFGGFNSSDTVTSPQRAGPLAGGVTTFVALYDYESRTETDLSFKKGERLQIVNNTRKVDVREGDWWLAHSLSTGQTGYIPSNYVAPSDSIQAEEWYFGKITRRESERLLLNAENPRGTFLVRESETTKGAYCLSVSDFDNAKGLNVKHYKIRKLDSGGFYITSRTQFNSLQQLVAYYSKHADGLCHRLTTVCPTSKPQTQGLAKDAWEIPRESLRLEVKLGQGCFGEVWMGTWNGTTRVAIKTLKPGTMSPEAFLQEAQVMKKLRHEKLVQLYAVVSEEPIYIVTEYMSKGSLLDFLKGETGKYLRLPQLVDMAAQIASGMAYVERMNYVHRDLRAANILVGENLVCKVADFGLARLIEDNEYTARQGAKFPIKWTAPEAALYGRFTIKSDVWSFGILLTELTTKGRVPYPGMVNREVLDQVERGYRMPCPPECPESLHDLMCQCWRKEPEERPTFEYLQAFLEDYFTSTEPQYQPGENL
Experimental: (§1) Kinase profiling of compound 17a at a concentration of 1 µM generated with the SelectScreen® Profiling Service from Life Technologies.
(§2) Figure S2. Kinase profiling of compound 17a, Illustration as waterfall plot. 9 Kinases harboring a Cysteine isostructural to Cys797 in EGFR are highlighted
(§3) Kinase % inhibition Kinase % inhibition […]
(§4) aValues are the mean ± SD of one measurement in duplicates; bKinases harboring a Cysteine isostructural to Cys797 […]
(§5) (1 picture or pasted object on this page, not shown here)

ITK = ITK (Homo sapiens, UniProt Q08881); assay: SelectScreen kinase profiling, ITK; format: biochemical; settings: mean ± SD of one measurement in duplicates
ITK, sequence (Q08881 whole entry): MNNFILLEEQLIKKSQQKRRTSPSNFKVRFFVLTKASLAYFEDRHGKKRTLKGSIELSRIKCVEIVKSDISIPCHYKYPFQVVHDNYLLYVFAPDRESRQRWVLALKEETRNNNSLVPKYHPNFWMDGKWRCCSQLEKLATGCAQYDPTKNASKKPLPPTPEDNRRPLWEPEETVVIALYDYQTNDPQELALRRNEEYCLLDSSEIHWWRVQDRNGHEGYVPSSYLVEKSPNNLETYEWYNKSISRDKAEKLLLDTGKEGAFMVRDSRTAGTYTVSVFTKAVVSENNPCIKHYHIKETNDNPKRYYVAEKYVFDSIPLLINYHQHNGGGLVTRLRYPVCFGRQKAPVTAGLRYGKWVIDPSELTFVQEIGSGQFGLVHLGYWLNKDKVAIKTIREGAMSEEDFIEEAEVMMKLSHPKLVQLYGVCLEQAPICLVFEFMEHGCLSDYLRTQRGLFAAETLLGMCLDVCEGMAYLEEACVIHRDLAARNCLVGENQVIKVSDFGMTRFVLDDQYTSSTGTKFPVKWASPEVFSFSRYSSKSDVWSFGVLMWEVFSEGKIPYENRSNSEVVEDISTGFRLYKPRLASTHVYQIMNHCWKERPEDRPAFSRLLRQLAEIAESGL
Experimental: as §1, §2, §3, §4, §5

ROS1 = ROS1 (Homo sapiens, UniProt P08922); assay: SelectScreen kinase profiling, ROS1; format: biochemical; settings: mean ± SD of one measurement in duplicates
ROS1, sequence (P08922 28-2347): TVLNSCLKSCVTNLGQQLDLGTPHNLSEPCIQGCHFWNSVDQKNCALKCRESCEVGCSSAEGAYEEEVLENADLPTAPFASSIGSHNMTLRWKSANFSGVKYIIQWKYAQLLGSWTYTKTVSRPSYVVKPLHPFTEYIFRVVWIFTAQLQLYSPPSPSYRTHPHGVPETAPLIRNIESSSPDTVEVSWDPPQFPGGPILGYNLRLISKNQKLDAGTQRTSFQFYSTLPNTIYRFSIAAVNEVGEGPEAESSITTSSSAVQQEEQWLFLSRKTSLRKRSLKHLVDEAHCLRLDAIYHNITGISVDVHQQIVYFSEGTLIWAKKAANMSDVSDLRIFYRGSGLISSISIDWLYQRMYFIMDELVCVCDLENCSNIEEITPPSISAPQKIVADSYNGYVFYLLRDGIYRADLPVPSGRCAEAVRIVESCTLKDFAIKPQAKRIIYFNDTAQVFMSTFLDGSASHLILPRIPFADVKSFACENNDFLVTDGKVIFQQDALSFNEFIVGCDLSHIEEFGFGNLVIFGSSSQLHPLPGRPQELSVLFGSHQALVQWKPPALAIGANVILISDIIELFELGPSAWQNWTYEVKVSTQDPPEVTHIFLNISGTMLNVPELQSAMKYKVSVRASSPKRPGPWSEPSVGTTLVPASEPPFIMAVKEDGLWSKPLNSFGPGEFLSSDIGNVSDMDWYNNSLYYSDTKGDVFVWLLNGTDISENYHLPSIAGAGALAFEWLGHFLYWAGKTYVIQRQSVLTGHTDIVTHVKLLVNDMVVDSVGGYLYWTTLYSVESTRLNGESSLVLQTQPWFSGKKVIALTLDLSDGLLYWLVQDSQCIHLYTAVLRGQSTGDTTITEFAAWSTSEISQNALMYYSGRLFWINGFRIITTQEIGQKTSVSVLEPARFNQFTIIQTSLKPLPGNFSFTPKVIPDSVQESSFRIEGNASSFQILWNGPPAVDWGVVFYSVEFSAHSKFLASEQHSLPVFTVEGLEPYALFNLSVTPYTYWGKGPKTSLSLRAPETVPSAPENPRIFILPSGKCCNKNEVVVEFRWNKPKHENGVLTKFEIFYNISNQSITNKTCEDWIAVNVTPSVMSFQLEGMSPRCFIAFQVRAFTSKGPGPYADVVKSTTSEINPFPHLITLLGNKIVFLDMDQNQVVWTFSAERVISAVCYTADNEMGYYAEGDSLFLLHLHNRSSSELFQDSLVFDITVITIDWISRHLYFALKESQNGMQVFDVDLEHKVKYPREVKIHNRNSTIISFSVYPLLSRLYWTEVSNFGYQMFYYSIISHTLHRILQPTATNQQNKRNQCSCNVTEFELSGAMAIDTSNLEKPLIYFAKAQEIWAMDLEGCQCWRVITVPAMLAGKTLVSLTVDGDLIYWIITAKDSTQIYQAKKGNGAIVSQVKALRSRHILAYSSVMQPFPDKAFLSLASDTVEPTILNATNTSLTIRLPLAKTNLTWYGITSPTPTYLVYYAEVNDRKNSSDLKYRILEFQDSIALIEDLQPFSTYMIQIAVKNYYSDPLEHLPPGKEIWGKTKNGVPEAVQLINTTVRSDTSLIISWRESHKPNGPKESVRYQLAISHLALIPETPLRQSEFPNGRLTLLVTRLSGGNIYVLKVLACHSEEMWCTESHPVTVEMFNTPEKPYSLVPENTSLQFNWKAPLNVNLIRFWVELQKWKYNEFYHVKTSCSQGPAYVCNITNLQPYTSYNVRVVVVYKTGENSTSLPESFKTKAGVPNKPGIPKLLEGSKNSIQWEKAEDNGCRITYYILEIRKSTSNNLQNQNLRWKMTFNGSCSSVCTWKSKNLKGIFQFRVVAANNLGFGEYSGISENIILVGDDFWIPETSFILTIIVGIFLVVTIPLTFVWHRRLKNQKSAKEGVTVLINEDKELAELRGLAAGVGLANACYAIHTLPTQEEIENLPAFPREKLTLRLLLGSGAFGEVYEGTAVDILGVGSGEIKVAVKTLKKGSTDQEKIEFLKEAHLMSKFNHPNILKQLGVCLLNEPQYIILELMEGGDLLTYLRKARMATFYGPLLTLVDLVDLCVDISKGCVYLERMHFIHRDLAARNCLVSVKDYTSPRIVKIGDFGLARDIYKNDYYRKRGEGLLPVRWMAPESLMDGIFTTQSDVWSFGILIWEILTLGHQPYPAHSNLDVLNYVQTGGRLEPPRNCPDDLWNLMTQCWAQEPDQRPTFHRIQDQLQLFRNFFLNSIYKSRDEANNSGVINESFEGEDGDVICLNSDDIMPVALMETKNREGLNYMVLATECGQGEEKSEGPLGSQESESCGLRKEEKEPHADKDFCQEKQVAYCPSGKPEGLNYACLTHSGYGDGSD
Experimental: as §1, §2, §3, §4, §5

BMX = BMX (Homo sapiens, UniProt P51813); assay: SelectScreen kinase profiling, BMX; format: biochemical; settings: mean ± SD of one measurement in duplicates
BMX, sequence (P51813 whole entry): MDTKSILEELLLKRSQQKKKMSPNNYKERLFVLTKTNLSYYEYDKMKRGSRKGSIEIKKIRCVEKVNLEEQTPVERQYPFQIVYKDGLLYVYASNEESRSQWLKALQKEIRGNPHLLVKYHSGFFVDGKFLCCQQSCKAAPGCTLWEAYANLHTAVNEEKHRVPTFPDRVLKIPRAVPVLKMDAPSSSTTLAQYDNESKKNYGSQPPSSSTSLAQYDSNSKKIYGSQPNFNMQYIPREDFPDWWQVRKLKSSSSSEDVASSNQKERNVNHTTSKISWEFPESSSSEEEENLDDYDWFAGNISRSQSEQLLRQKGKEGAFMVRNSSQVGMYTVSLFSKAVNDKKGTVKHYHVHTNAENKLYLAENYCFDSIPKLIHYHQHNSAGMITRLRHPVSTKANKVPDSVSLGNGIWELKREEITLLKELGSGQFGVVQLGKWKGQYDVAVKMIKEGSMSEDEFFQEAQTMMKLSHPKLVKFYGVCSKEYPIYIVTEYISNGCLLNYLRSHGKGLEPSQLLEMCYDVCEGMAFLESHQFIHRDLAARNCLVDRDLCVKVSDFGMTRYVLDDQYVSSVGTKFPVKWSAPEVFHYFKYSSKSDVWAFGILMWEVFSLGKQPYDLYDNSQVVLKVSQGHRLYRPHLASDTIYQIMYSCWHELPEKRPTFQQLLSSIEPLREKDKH
Experimental: as §1, §2, §3, §4, §5

microsomal CLint at 3 µM [1] [µL/min/mg]	efflux ratio at 2 h, 5 µM (Caco-2 assay; Caco-2, pH 7.4, efflux ratio, read-out: Caco-2: ratio (BA) : (AB))	Papp A→B at 2 h, 5 μM (Caco-2 assay; Caco-2, apical to basolateral, 5 μM, pH 7.4, 2 hours, read-out: Caco-2: Papp AB) [×10⁻⁶ cm/s]	Papp B→A at 2 h, 5 μM (Caco-2 assay; Caco-2, basolateral to apical, 5 μM, pH 7.4, 2 hours, read-out: Caco-2: Papp BA) [×10⁻⁶ cm/s]	inhibition at 1 µM (SRC-N1) [%]	inhibition at 1 µM (ITK) [%]	inhibition at 1 µM (ROS1) [%]	inhibition at 1 µM (BMX) [%]	Structure (SMILES)
6.7	3.1	1.2	3.6	–	–	–	–	C=CC(=O)Nc1cccc(-c2c(-c3ccc(N4CCN(C)CC4)cc3)[nH]c3ncnc(OCC(C)C)c23)c1 [Compound 19h]
–	–	–	–	95 ± 1	70 ± 2	92	89 ± 1	C=CC(=O)Nc1cccc(-c2c(-c3ccc(CN4CCN(C)CC4)cc3)[nH]c3ncnc(OC)c23)c1 [Compound 17a]
